From DBAASP
≈ marks a conversion by molar mass, not a printed value. Values belong to the molecule of their own block, whether it stands above or below them.

How the values were obtained:
Assay in all cases: ≥ marks a high value that may be exact or a test limit, other limits are often not marked, values filed in µg/mL are converted to µM
[1] = test system: Escherichia coli ATCC 25922
[2] = test system: Staphylococcus aureus FDA 209P
[3] = test system: Streptococcus mutans UA159
[4] = test system: Streptococcus sanguinis NY101
[5] = test system: Streptococcus gordonii Challis DL1
Staphylococcus aureus = test system: Staphylococcus aureus
[6] = test system: Streptococcus mitis ATCC 903
[7] = test system: Pseudomonas aeruginosa PAK
[8] = test system: Staphylococcus aureus ATCC 6538P
Escherichia coli JM109 = test system: Escherichia coli JM109
[9] = test system: Shewanella putrefaciens IAM 1509
[10] = test system: Staphylococcus aureus IAM 1011
[11] = test system: Vibrio anguillarum NCIMB 829
[12] = test system: Vibrio parahaemolyticus Vp+1
[13] = test system: Escherichia coli JCM 1649
[14] = test system: Photobacterium damselae subsp. piscicida Sp 9587
Salmonella typhimurium = test system: Salmonella typhimurium
[15] = test system: Bacillus subtilis IAM 1026
[16] = test system: Aeromonas salmonicida NCIMB 1102
[17] = test system: Acholeplasma laidlawii A-EF22
Pseudomonas aeruginosa = test system: Pseudomonas aeruginosa
Escherichia coli K91BK = test system: Escherichia coli K91BK
[18] = test system: Bacillus subtilis var. niger ATCC 9372
Escherichia coli U16318 = test system: Escherichia coli U16318
[19] = test system: Staphylococcus aureus B38302
[20] = test system: Bacillus anthracis Sterne 34F2

MIC [1]: 1.7 µM (≈ 8.13 µg/mL) | MIC [2]: 3 µM (≈ 14.3 µg/mL)
Structure (SMILES): CC[C@H](C)[C@H](NC(=O)CNC(=O)[C@H](CCCCN)NC(=O)[C@@H](NC(=O)CNC(=O)[C@H](CCCCN)NC(=O)[C@@H](NC(=O)[C@@H](NC(=O)[C@H](CCSC)NC(=O)[C@H](CC(N)=O)NC(=O)[C@H](CCCCN)NC(=O)[C@@H](NC(=O)CNC(=O)[C@H](CCCCN)NC(=O)CNC(=O)[C@H](C)NC(=O)[C@H](Cc1ccccc1)NC(=O)[C@H](CCCCN)NC(=O)[C@H](CO)NC(=O)[C@H](Cc1ccccc1)NC(=O)[C@H](CC(C)C)NC(=O)CN)[C@@H](C)CC)[C@@H](C)CC)[C@@H](C)CC)[C@@H](C)CC)C(=O)NCC(=O)N[C@@H](CCCCN)C(=O)N[C@@H](CCC(=O)O)C(=O)N[C@H](C(=O)NCC(=O)N[C@@H](CCSC)C(=O)N[C@@H](CC(=O)O)C(=O)N[C@H](C(=O)N[C@H](C(=O)N[C@@H](CCCN=C(N)N)C(=O)N[C@H](C(=O)NCC(=O)N[C@H](C(=O)N[C@@H](CC(=O)O)C(=O)N[C@H](C(=O)N[C@@H](C)C(=O)NCC(=O)N[C@H]1CSSC[C@@H](C(=O)O)NC(=O)[C@H](CCC(=O)O)NC(=O)CNC(=O)[C@H](CCCCN)NC(=O)[C@H]([C@@H](C)CC)NC(=O)[C@H](CCCCN)NC1=O)C(C)C)[C@@H](C)CC)[C@@H](C)O)[C@@H](C)CC)C(C)C)C(C)C [GLFSKFAGKGIKNMIIKGIKGIGKEVGMDVIRTGIDVAGCKIKGEC]

MIC [3]: 3.09 µM (≈ 8 µg/mL) | MIC [4]: 12.4 µM (≈ 32 µg/mL) | MIC [5]: 12.4 µM (≈ 32 µg/mL) | MIC (Staphylococcus aureus): 12.4 µM (≈ 32 µg/mL) | MIC [6]: 12.4 µM (≈ 32 µg/mL) | MIC [7]: 24.1 µM (≈ 62.5 µg/mL)
Structure (SMILES): CC[C@H](C)[C@H](NC(=O)[C@H](Cc1ccccc1)NC(=O)CNC(=O)CNC(=O)CNC(=O)[C@H](Cc1ccccc1)NC(=O)[C@H](Cc1c[nH]c2ccccc12)NC(=O)[C@H](CCCN=C(N)N)NC(=O)[C@H](Cc1c[nH]c2ccccc12)NC(=O)[C@H](CCCN=C(N)N)NC(=O)[C@H](Cc1c[nH]c2ccccc12)NC(=O)[C@@H](N)CCCN=C(N)N)C(=O)N[C@@H](CCCCN)C(=O)N[C@@H](Cc1cnc[nH]1)C(=O)N[C@@H](Cc1ccccc1)C(=O)N[C@H](C(=O)N[C@@H](Cc1cnc[nH]1)C(=O)N[C@@H](CCCN=C(N)N)C(=O)N[C@@H](Cc1ccccc1)C(N)=O)[C@@H](C)CC [RWRWRWFGGGFIKHFIHRF]

MIC (Staphylococcus aureus): 49.1 µM (≈ 64 µg/mL) | MIC [8]: 7.67 µM (≈ 9.99 µg/mL) | MIC (Escherichia coli JM109): ≥ 36.8 µM
Structure (SMILES): CC[C@H](C)[C@H](NC(=O)[C@H](C)NC(=O)[C@H](CC(C)C)NC(=O)[C@H](CC(C)C)NC(=O)[C@H](Cc1cnc[nH]1)NC(=O)[C@H](C)NC(=O)[C@H](C)NC(=O)[C@H](CC(C)C)NC(=O)[C@@H](N)CC(C)C)C(=O)NCC(=O)N[C@@H](CCCN=C(N)N)C(=O)N[C@@H](CCCN=C(N)N)C(N)=O [LLAAHLLAIGRR]

MIC [17]: ≥ 100 µM
Structure (SMILES): CC(C)C[C@H](NC(=O)[C@H](CC(C)C)NC(=O)[C@H](CCCCN)NC(=O)[C@H](CC(C)C)NC(=O)[C@H](CC(C)C)NC(=O)[C@H](CC(C)C)NC(=O)[C@@H](N)CCCCN)C(=O)N[C@@H](CCCCN)C(=O)O [KLLLKLLK]

MIC [3]: 2.4 µM (≈ 8 µg/mL) | MIC [4]: 9.6 µM (≈ 32 µg/mL) | MIC [5]: 4.8 µM (≈ 16 µg/mL) | MIC (Staphylococcus aureus): 9.6 µM (≈ 32 µg/mL) | MIC [6]: 9.6 µM (≈ 32 µg/mL) | MIC [7]: 9.6 µM (≈ 32 µg/mL)
Structure (SMILES): CC[C@H](C)[C@H](NC(=O)[C@H](Cc1ccccc1)NC(=O)CNC(=O)CNC(=O)[C@H](CO)NC(=O)[C@H](Cc1cnc[nH]1)NC(=O)[C@H](CC(C)C)NC(=O)[C@H](CC(C)C)NC(=O)[C@H](Cc1cnc[nH]1)NC(=O)[C@H](Cc1cnc[nH]1)NC(=O)[C@H](CC(C)C)NC(=O)[C@H](CCCCN)NC(=O)[C@H](CCCCN)NC(=O)[C@H](CC(C)C)NC(=O)[C@H](CC(C)C)NC(=O)[C@H](CCCN=C(N)N)NC(=O)[C@H](CCCN=C(N)N)NC(=O)[C@H](Cc1c[nH]c2ccccc12)NC(=O)[C@@H](N)CCCN=C(N)N)C(=O)N[C@@H](CCCCN)C(=O)N[C@@H](Cc1cnc[nH]1)C(=O)N[C@@H](Cc1ccccc1)C(=O)N[C@H](C(=O)N[C@@H](Cc1cnc[nH]1)C(=O)N[C@@H](CCCN=C(N)N)C(=O)N[C@@H](Cc1ccccc1)C(N)=O)[C@@H](C)CC [RWRRLLKKLHHLLHSGGFIKHFIHRF]

The next lines start with the molecule.

Structure (SMILES): CC[C@H](C)[C@H](NC(=O)CNC(=O)[C@H](CCCCN)NC(=O)[C@@H](NC(=O)CNC(=O)[C@H](CCCCN)NC(=O)[C@@H](NC(=O)[C@@H](NC(=O)[C@H](CC(C)C)NC(=O)[C@H](CC(=O)O)NC(=O)[C@H](CCCCN)NC(=O)[C@@H](NC(=O)CNC(=O)[C@H](CCCCN)NC(=O)CNC(=O)[C@H](C)NC(=O)[C@H](Cc1ccccc1)NC(=O)[C@H](CCCCN)NC(=O)[C@H](CO)NC(=O)[C@H](Cc1ccccc1)NC(=O)[C@@H](NC(=O)CN)[C@@H](C)CC)[C@@H](C)CC)[C@@H](C)CC)[C@@H](C)CC)C(C)C)C(=O)N[C@@H](C)C(=O)N[C@@H](CCCCN)C(=O)N[C@@H](CCC(=O)O)C(=O)N[C@@H](C)C(=O)NCC(=O)N[C@@H](CCSC)C(=O)N[C@@H](CC(=O)O)C(=O)N[C@H](C(=O)N[C@H](C(=O)N[C@@H](CCCN=C(N)N)C(=O)N[C@H](C(=O)NCC(=O)N[C@H](C(=O)N[C@@H](CC(=O)O)C(=O)N[C@H](C(=O)N[C@@H](C)C(=O)NCC(=O)N[C@H]1CSSC[C@@H](C(=O)O)NC(=O)[C@H](CCC(=O)O)NC(=O)CNC(=O)[C@H](CCCCN)NC(=O)[C@H]([C@@H](C)CC)NC(=O)[C@H](CCCCN)NC1=O)[C@@H](C)CC)[C@@H](C)CC)[C@@H](C)O)[C@@H](C)CC)C(C)C [GIFSKFAGKGIKDLIIKGVKGIAKEAGMDVIRTGIDIAGCKIKGEC]
MIC [1]: 3.2 µM (≈ 15.2 µg/mL) | MIC [2]: 4.9 µM (≈ 23.3 µg/mL)

Structure (SMILES): CC[C@H](C)[C@H](NC(=O)CNC(=O)CNC(=O)[C@@H](NC(=O)[C@@H](N)Cc1ccccc1)[C@@H](C)CC)C(=O)N[C@H](C(=O)N[C@@H](CO)C(=O)N[C@@H](Cc1ccccc1)C(=O)N[C@H](C(=O)N[C@@H](CCCCN)C(=O)N[C@@H](CCCCN)C(=O)N[C@@H](CC(C)C)C(=O)N[C@@H](Cc1ccccc1)C(=O)O)[C@@H](C)CC)[C@@H](C)CC [FIGGIISFIKKLF]
MIC [9]: 4.21 µM (≈ 6.25 µg/mL) | MIC [10]: 2.11 µM (≈ 3.13 µg/mL) | MIC [11]: 8.43 µM (≈ 12.5 µg/mL) | MIC [12]: 16.9 µM (≈ 25 µg/mL) | MIC [13]: ≥ 33.7 µM | MIC [14]: 8.43 µM (≈ 12.5 µg/mL) | MIC (Salmonella typhimurium): ≥ 33.7 µM | MIC [15]: 4.21 µM (≈ 6.25 µg/mL) | MIC [16]: ≥ 33.7 µM

Structure (SMILES): CC[C@H](C)[C@H](NC(=O)[C@H](C)NC(=O)[C@H](CC(C)C)NC(=O)[C@H](CC(C)C)NC(=O)[C@H](CC(C)C)NC(=O)[C@H](C)N)C(=O)N[C@@H](CCCN=C(N)N)C(=O)N[C@@H](CCCN=C(N)N)C(=O)N[C@@H](CCCN=C(N)N)C(N)=O [ALLLAIRRR]
MIC (Pseudomonas aeruginosa): 2.77 µM (≈ 3 µg/mL) | MIC (Staphylococcus aureus): 29.6 µM (≈ 32 µg/mL) | MIC [8]: 1.85 µM (≈ 2 µg/mL) | MIC (Escherichia coli JM109): 1.85 µM (≈ 2 µg/mL)

Structure (SMILES): CC(=O)N[C@@H](C)C(=O)N[C@@H](CC(C)C)C(=O)N[C@@H](Cc1c[nH]c2ccccc12)C(=O)N[C@@H](CCCCN)C(=O)N[C@H](C(=O)N[C@@H](CC(C)C)C(=O)N[C@@H](CC(C)C)C(=O)N[C@@H](CCCCN)C(=O)N[C@@H](CCCCN)C(=O)N[C@H](C(=O)N[C@@H](CC(C)C)C(=O)N[C@@H](CCCCN)C(=O)N[C@@H](C)C(N)=O)C(C)C)[C@@H](C)O [ALWKTLLKKVLKA]
MIC (Escherichia coli K91BK): ≥ 100 µM | MIC [18]: 4.42 µM (≈ 6.86 µg/mL) | MIC (Escherichia coli U16318): 25 µM (≈ 38.8 µg/mL) | MIC [19]: 25 µM (≈ 38.8 µg/mL) | MIC [20]: ≥ 70.7 µM
